This passage reports IC50 and EC50 results from patent US20230391772A1, “METHODS AND COMPOSITIONS FOR TARGETED PROTEIN DEGRADATION” (Ranok Therapeutics (Hangzhou) Co. Ltd., priority 2020, published 2023).

Each structure is given as a SMILES string.

Test [1] addresses T1, HSP90a protein (Homo sapiens, UniProt P07900).
T1 construct: purchased BPS Bioscience 50298
The test is described as follows: HSP90α-binding fluorescent polarization (FP) assay, BODIPY-labeled RNK04010 probe. The note with it: FP competition with RNK04010 (BODIPY-labeled), 5 nM, 300 min at 25° C. In outline: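 N-terminal HSP90a construct; tracer 5 nM final (FITC-geldanamycin or BODIPY-RNK04010, a labeled triazolone binder). Compounds 20 μM–5.2 nM, 2.5-fold steps. 25° C, 120 min (FITC) / 300 min (BODIPY). FP readout.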

Test [2] concerns MIA PaCa-2 human pancreatic carcinoma. The test is described as follows: MIA PaCa-2 CCK-8 proliferation assay. The class given is cell-based. As to conditions: Homo sapiens, MIA PaCa-2, 72 h, MIA PaCa-2 cells. An outline of the steps: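 Proliferation of mutant-KRAS(G12C) cells (2 copies in MIA PaCa-2, single copy in NCI-H358/NCI-H23) measured with CCK-8 after treatment across 20 μM–1.02 nM; inhibition expressed relative to vehicle-treated wells after subtracting no-cell background.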
For orientation: Formazan colour is commonly taken as a measure of viable cells.

The target in test [3] is KRAS(G12C) (Homo sapiens, UniProt P01116, G12C). Kind of test: KRAS(G12C)/SOS1 homogeneous time-resolved fluorescence (HTRF) assay. On the set-up: purchased Cisbio 63ADK000CB16PEG. As to conditions: absence of GTP, 4° C. for 3 hr, read-out: KRAS (G12C) binding. An outline of the steps:
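Three-hour incubation at 4 °C of 3-fold compound dilutions (lowest 1.02 nM) with KRAS(G12C), SOS1 and detection reagents, GTP absent. Disruption of the KRAS(G12C)/SOS1 complex detected by time-resolved fluorescence.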
Background: TR-FRET usually uses a lanthanide donor and a delayed reading to cut background.

KRAS(G12C), sequence (P01116 1-188 isoform P01116-2 G12C): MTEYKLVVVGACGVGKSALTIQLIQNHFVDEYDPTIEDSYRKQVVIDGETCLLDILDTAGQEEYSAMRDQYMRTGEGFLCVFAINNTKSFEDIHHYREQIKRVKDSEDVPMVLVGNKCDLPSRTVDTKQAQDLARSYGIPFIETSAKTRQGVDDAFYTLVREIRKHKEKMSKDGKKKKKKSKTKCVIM

The term EC50 denotes the concentration at which the effect is half-maximal. Higher therefore signals weaker potency. Regarding `C=CC(=O)N1CCN(c2nc(OCCN3CCN(Cc4cc(C(C)C)c(O)cc4O)CC3)nc3c2CCN(c2cccc4cccc(Cl)c24)C3)C[C@@H]1CC#N` [Compound 216, (S)-2-(1-acryloyl-4-(7-(8-chloronaphthalen-1-yl)-2-(2-(4-(2,4-dihydroxy-5-isopropylbenzyl)piperazin-1-yl)ethoxy)-5,6,7,8-tetrahydropyrido[3,4-d]pyrimidin-4-yl)piperazin-2-yl)acetonitrile], the IC50 in test [1] was 100 to 1000 nM; in test [3] it was less than 100 nM. Besides, the EC50 in test [2] lay within 100 to 1000 nM.
In the case of `C=CC(=O)N1CCN(c2nc(OCCN3CCC4(CC3)CCN(Cc3cc(C(C)C)c(O)cc3O)CC4)nc3c2CCN(c2cccc4cccc(Cl)c24)C3)C[C@@H]1CC#N` [Compound 217, (S)-2-(1-acryloyl-4-(7-(8-chloronaphthalen-1-yl)-2-(2-(9-(2,4-dihydroxy-5-isopropylbenzyl)-3,9-diazaspiro[5.5]undecan-3-yl)ethoxy)-5,6,7,8-tetrahydropyrido[3,4-d]pyrimidin-4-yl)piperazin-2-yl)acetonitrile], the IC50 in test [1] is 100 to 1000 nM; in test [3], less than 100 nM. The EC50 in test [2] is more than 1000 nM.
For the molecule `C=CC(=O)N1CCN(c2nc(OCCN3CCC4(CC3)CCN(C(=O)C3CCN(Cc5ccc(-n6c(O)nnc6-c6cc(C(C)C)c(O)cc6O)cc5)CC3)CC4)nc3c2CCN(c2cccc4cccc(Cl)c24)C3)C[C@@H]1CC#N` [Compound 218, (S)-2-(1-acryloyl-4-(7-(8-chloronaphthalen-1-yl)-2-(2-(9-(1-(4-(3-(2,4-dihydroxy-5-isopropylphenyl)-5-hydroxy-4H-1,2,4-triazol-4-yl)benzyl)piperidine-4-carbonyl)-3,9-diazaspiro[5.5]undecan-3-yl)ethoxy)-5,6,7,8-tetrahydropyrido[3,4-d]pyrimidin-4-yl)piperazin-2-yl)acetonitrile], the IC50 in test [1] and in test [3] was less than 100 nM in each case. Moreover, the EC50 in test [2] was more than 1000 nM.
Consider `C=CC(=O)N1CCN(c2nc(OCC3CN(C(=O)c4ccc(-n5c(O)nnc5-c5cc(C(C)C)c(O)cc5O)cc4)C3)nc3c2CCN(c2cccc4cccc(Cl)c24)C3)C[C@@H]1CC#N` [Compound 221, (S)-2-(1-acryloyl-4-(7-(8-chloronaphthalen-1-yl)-2-((1-(4-(3-(2,4-dihydroxy-5-isopropylphenyl)-5-hydroxy-4H-1,2,4-triazol-4-yl)benzoyl)azetidin-3-yl)methoxy)-5,6,7,8-tetrahydropyrido[3,4-d]pyrimidin-4-yl)piperazin-2-yl)acetonitrile], for which the IC50 in test [1] was less than 100 nM; in test [3] it was more than 1000 nM. In test [2], this molecule yielded an EC50 of more than 1000 nM.
As for `C=CC(=O)N1CCN(c2nc(OCCN3CCN(C(=O)C4CCN(Cc5ccc(-n6c(C(=O)NCC(F)(F)F)nnc6-c6cc(C)c(O)cc6O)cc5)CC4)CC3)nc3c2CCN(c2cccc4cccc(Cl)c24)C3)C[C@@H]1CC#N` [Compound 222, (S)-4-(4-((4-(4-(2-((4-(4-acryloyl-3-(cyanomethyl)piperazin-1-yl)-7-(8-chloronaphthalen-1-yl)-5,6,7,8-tetrahydropyrido[3,4-d]pyrimidin-2-yl)oxy)ethyl)piperazine-1-carbonyl)piperidin-1-yl)methyl)phenyl)-5-(2,4-dihydroxy-5-methylphenyl)-N-(2,2,2-trifluoroethyl)-4H-1,2,4-triazole-3-carboxamide], the IC50 in test [1] was less than 100 nM; in test [3] it was 100 to 1000 nM. The same molecule came in with an EC50 in test [2] of 100 to 1000 nM.
For the molecule `C=CC(=O)N1CCN(c2nc(OC[C@@H]3CCCN(C(=O)C4CCN(Cc5ccc(-n6c(O)nnc6-c6cc(C(C)C)c(O)cc6O)cc5)CC4)C3)nc3c2CCN(c2cccc4cccc(Cl)c24)C3)C[C@@H]1CC#N` [Compound 293, 2-((S)-1-acryloyl-4-(7-(8-chloronaphthalen-1-yl)-2-(((R)-1-(1-(4-(3-(2,4-dihydroxy-5-isopropylphenyl)-5-hydroxy-4H-1,2,4-triazol-4-yl)benzyl)piperidine-4-carbonyl)piperidin-3-yl)methoxy)-5,6,7,8-tetrahydropyrido[3,4-d]pyrimidin-4-yl)piperazin-2-yl)acetonitrile], the IC50 in test [1] is less than 100 nM; in test [3] it was more than 1000 nM. This molecule also came in with an EC50 in test [2] of 100 to 1000 nM.
For the molecule `C=CC(=O)N1CCN(c2nc(OC[C@@H]3C[C@@H](OC(=O)N4CCN(Cc5ccc(-n6c(O)nnc6-c6cc(CC)c(O)cc6O)cc5)CC4)CN3C)nc3c2CCN(c2cccc4cccc(Cl)c24)C3)C[C@@H]1CC#N` [Compound 294, (3R,5S)-5-(((4-((S)-4-acryloyl-3-(cyanomethyl)piperazin-1-yl)-7-(8-chloronaphthalen-1-yl)-5,6,7,8-tetrahydropyrido[3,4-d]pyrimidin-2-yl)oxy)methyl)-1-methylpyrrolidin-3-yl 4-(4-(3-(5-ethyl-2,4-dihydroxyphenyl)-5-hydroxy-4H-1,2,4-triazol-4-yl)benzyl)piperazine-1-carboxylate], the figures for the IC50 in test [1] and in test [3] were less than 100 nM and more than 1000 nM, respectively. The same molecule showed an EC50 in test [2] of more than 1000 nM.
For `C=CC(=O)N1CCN(c2nc(OC[C@@H]3C[C@@H](OC(=O)NCc4ccc(-n5c(O)nnc5-c5cc(CC)c(O)cc5O)cc4)CN3C)nc3c2CCN(c2cccc4cccc(Cl)c24)C3)C[C@@H]1CC#N` [Compound 295, (3R,5S)-5-(((4-((S)-4-acryloyl-3-(cyanomethyl)piperazin-1-yl)-7-(8-chloronaphthalen-1-yl)-5,6,7,8-tetrahydropyrido[3,4-d]pyrimidin-2-yl)oxy)methyl)-1-methylpyrrolidin-3-yl 4-(3-(5-ethyl-2,4-dihydroxyphenyl)-5-hydroxy-4H-1,2,4-triazol-4-yl)benzylcarbamate], the results for the IC50 in test [1] and in test [3] were less than 100 nM and 100 to 1000 nM, respectively. In addition, in test [2], the 50% effective concentration (EC50) was more than 1000 nM.
For `C=CC(=O)N1CCN(c2nc(OC[C@@H]3CC[C@H](COC(=O)NCc4ccc(-n5c(O)nnc5-c5cc(CC)c(O)cc5O)cc4)N3C)nc3c2CCN(c2cccc4cccc(Cl)c24)C3)C[C@@H]1CC#N` [Compound 296, ((2R,5S)-5-(((4-((S)-4-acryloyl-3-(cyanomethyl)piperazin-1-yl)-7-(8-chloronaphthalen-1-yl)-5,6,7,8-tetrahydropyrido[3,4-d]pyrimidin-2-yl)oxy)methyl)-1-methylpyrrolidin-2-yl)methyl4-(3-(5-ethyl-2,4-dihydroxyphenyl)-5-hydroxy-4H-1,2,4-triazol-4-yl)benzylcarbamate] the same measures were less than 100 nM, 100 to 1000 nM and more than 1000 nM.
Take `C=CC(=O)N1CCN(c2nc(OCC3CCC(COCC(=O)N4CCN(Cc5ccc(-n6c(O)nnc6-c6cc(CC)c(O)cc6O)cc5)CC4)N3)nc3c2CCN(c2cccc4cccc(Cl)c24)C3)C[C@@H]1CC#N` (stereo partly drawn) [Compound 297, 2-((2S)-1-acryloyl-4-(7-(8-chloronaphthalen-1-yl)-2-((5-((2-(4-(4-(3-(5-ethyl-2,4-dihydroxyphenyl)-5-hydroxy-4H-1,2,4-triazol-4-yl)benzyl)piperazin-1-yl)-2-oxoethoxy)methyl)pyrrolidin-2-yl)methoxy)-5,6,7,8-tetrahydropyrido[3,4-d]pyrimidin-4-yl)piperazin-2-yl)acetonitrile]: the IC50 is less than 100 nM in test [1] and more than 1000 nM in test [3]. Also, the concentration for a half-maximal effect (EC50) in test [2] was more than 1000 nM.
For the molecule `C=CC(=O)N1CCN(c2nc(OCC3CCC(CN4CCC(Cc5ccc(-n6c(C(=O)NCC(F)(F)F)nnc6-c6cc(C(C)C)c(O)cc6O)cc5)CC4)N3)nc3c2CCN(c2cccc4cccc(Cl)c24)C3)C[C@@H]1CC#N` (stereo partly drawn) [Compound 298, 4-(4-((1-((5-(((4-((S)-4-acryloyl-3-(cyanomethyl)piperazin-1-yl)-7-(8-chloronaphthalen-1-yl)-5,6,7,8-tetrahydropyrido[3,4-d]pyrimidin-2-yl)oxy)methyl)pyrrolidin-2-yl)methyl)piperidin-4-yl)methyl)phenyl)-5-(2,4-dihydroxy-5-isopropylphenyl)-N-(2,2,2-trifluoroethyl)-4H-1,2,4-triazole-3-carboxamide], the values for the IC50 in test [1] and in test [3] were less than 100 nM and more than 1000 nM, respectively. This molecule yielded a concentration for a half-maximal effect (EC50) in test [2] of 100 to 1000 nM.
`C=CC(=O)N1CCN(c2nc(OCC3CCC(CNCc4ccc(-n5c(O)nnc5-c5cc(CC)c(O)cc5O)cc4)N3)nc3c2CCN(c2cccc4cccc(Cl)c24)C3)C[C@@H]1CC#N` (stereo partly drawn) [Compound 299, 2-((2S)-1-acryloyl-4-(7-(8-chloronaphthalen-1-yl)-2-((5-(((4-(3-(5-ethyl-2,4-dihydroxyphenyl)-5-hydroxy-4H-1,2,4-triazol-4-yl)benzyl)amino)methyl)pyrrolidin-2-yl)methoxy)-5,6,7,8-tetrahydropyrido[3,4-d]pyrimidin-4-yl)piperazin-2-yl)acetonitrile]: the IC50 in test [1] was less than 100 nM; in test [3], 100 to 1000 nM. The same molecule returned an EC50 in test [2] of more than 1000 nM.
